In one assay the target is T1, EGFR (Homo sapiens, UniProt P00533).
T1 construct: The intracellular portion of EGFR started at nucleotide 2189 (corresponding to amino acid 667) and ended at the termination codon; made in house; host or cells: Sf9 insect cells (baculovirus)
Put plainly: EGFR Kinase Assay. The class given is biochemical. The note with it: for IC50: GST-EGFR, ATP 5 μM; for inhibition at 2 µM: test concentration of 2 μM, compounds without an IC50, read-out: EGFR inhibition in percent. Summed up:
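Potency came from triplicate 16-point half-log titrations starting at 200 uM, with IC50 fitted from % inhibition against log concentration, or % inhibition at 2 μM otherwise. Reaction: Sf9-made GST–EGFR cytoplasmic region (aa 667 onward), biotin-polyGluTyr, 5 μM ATP with 33P tracer, pH 8.0 Tris/Mg/vanadate/DTT, 30 °C for 1 h; captured on streptavidin Flashplates and counted.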

The next assay addresses T2, HER-2 (Homo sapiens, UniProt P04626).
T2 construct: His6 with thrombin site (N); purchased Proqinase (Freiburg, Germany)
Put plainly: HER-2 Kinase Assay. In kind it is biochemical. The note with it: value in parentheses. The method, then: The HER-2 kinase used was purified at Proqinase (Freiburg, Germany) from a construct that consisted of a fusion of GST (Glutathione-S-Transferase), HIS6-Thrombin and the nucleotides encoding amino acids 679 to 1255 of HER-2 (Accession Number M11730).
A mixture of a 10× kinase reaction buffer (600 mM Hepes at pH 7.5, 30 mM Magnesium Chloride, 0.03 mM Sodium Vanadate and 500 μg/mL PEG 20,000), DTT (1.2 mM final from a 10 mM stock), APT (1 μM from a 10 mM stock), biotinylated polyGluTyr (1.5 ng/μL final from stock of 1 μg/μL) prepared by Upstate Biotechnologies, Lake Placid, N.Y.), Manganese Chloride (3 mM final from a 1 M stock), γ-^33P-ATP (10 μCl/μL stock) and water (70 μL/well) was added to each well of a Streptavidin Flashplate (Cat. # SMP103, NEN, Boston, Mass.).
Test compound stock (1 μL) was added to the appropriate wells. Diluted GSTHER2 kinase (6.7 ng/μL diluted into 50 mM Tris-HCl at pH 8.0 and 0.1% bovine serum albumin) (30 μL) was added (total volume of 200 ng/well) to initiate the reactions.
The reaction plates were incubated at 30° C. for 1 hr. The reaction was terminated by aspirating the reaction mixture from the plate wells and washing the wells three times with a 1×PBS stop buffer (300 μL) and 100 mM EDTA. After the final wash, the same stop buffer (200 μL) was again added to the wells. The plates were then sealed and read on the TopCount scintillation counter.
The Her-2 inhibition values were derived according to the procedure described in Example 164 and are shown as percent in Table 4 at a test concentration of 1 μM. For those compounds with an IC50, the IC50 value in μM is shown in parentheses. For compounds with multiple test values, each value represents a separate assay result.

The source of these data is patent US7579356B2, “Thia-tetraazaacenaphthylene kinase inhibitors” (Janssen Pharmaceutica NV, priority 2005, dated 2009).

T2 sequence (P04626 679-1255): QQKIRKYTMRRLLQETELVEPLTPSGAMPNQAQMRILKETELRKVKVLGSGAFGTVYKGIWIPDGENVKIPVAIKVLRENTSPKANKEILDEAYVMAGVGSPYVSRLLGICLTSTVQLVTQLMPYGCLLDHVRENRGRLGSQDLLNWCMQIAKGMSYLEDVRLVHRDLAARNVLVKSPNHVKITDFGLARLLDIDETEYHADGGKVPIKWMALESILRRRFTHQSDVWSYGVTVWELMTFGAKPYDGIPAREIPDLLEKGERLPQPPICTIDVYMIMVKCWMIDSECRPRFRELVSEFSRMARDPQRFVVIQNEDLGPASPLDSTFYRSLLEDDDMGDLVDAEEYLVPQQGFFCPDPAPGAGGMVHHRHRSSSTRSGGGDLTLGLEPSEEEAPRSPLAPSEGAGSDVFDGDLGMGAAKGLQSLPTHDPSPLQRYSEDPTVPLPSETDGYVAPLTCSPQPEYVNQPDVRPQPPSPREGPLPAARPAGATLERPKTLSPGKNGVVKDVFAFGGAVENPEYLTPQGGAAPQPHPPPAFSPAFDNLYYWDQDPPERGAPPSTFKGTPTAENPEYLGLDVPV
T1 sequence (P00533 669-1210 limits assumed): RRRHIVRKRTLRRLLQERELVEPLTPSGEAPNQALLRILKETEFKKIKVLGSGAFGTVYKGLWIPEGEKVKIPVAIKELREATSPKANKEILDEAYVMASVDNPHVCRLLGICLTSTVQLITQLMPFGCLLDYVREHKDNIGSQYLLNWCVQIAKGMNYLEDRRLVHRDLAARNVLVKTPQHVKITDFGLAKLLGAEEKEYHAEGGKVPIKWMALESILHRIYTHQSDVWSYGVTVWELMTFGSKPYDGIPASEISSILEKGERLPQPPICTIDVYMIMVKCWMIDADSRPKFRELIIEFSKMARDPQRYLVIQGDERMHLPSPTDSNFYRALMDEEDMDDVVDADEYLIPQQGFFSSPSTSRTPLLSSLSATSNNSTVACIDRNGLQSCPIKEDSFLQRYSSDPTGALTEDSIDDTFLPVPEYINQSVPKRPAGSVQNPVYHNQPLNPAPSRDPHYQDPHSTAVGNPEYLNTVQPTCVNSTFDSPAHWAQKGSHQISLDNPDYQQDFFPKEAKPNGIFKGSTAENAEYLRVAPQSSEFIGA

In the case of `COc1ccc(N2C(=O)Nc3c(C(=O)Nc4ccc(CN5CCOCC5)cc4)sc4ncnc2c34)cc1Br` [Cpd 181, 5-(3-bromo-4-methoxy-phenyl)-4-oxo-4,5-dihydro-3H-1-thia-3,5,6,8-tetraaza-acenaphthylene-2-carboxylic acid (4-morpholin-4-ylmethyl-phenyl)-amide], the IC50 (in general, the concentration at which inhibition is half-maximal) on EGFR came out at 887 nM; on HER-2 it was 2190 nM.

`COc1ccc(N2C(=O)Nc3c(C(=O)Nc4ccc(CN5CCCCC5)cc4)sc4ncnc2c34)cc1Br` [Cpd 182, 5-(3-bromo-4-methoxy-phenyl)-4-oxo-4,5-dihydro-3H-1-thia-3,5,6,8-tetraaza-acenaphthylene-2-carboxylic acid (4-piperidin-1-ylmethyl-phenyl)-amide]: the IC50 turned out to be 880 nM against EGFR and 1680 nM on HER-2.

With `COc1ccc(N2C(=O)Nc3c(C(=O)Nc4ccc(CN5CCOCC5)c(OC)c4)sc4ncnc2c34)cc1Br` [Cpd 183, 5-(3-bromo-4-methoxy-phenyl)-4-oxo-4,5-dihydro-3H-1-thia-3,5,6,8-tetraaza-acenaphthylene-2-carboxylic acid (3-methoxy-4-morpholin-4-ylmethyl-phenyl)-amide], the figures for the IC50 at EGFR and on HER-2 were 420 nM and 980 nM, respectively.

In the case of `COc1cc(NC(=O)c2sc3ncnc4c3c2NC(=O)N4c2cccc(Br)c2)ccc1CN1CCOCC1` [Cpd 184, 5-(3-bromo-phenyl)-4-oxo-4,5-dihydro-3H-1-thia-3,5,6,8-tetraaza-acenaphthylene-2-carboxylic acid (3-methoxy-4-morpholin-4-ylmethyl-phenyl)-amide], the IC50 on EGFR came out at 17 nM; at HER-2, 79 nM.

As to `O=C(Nc1ccc(CN2CCOCC2)cc1)c1sc2ncnc3c2c1NC(=O)N3c1ccc(Oc2ccccc2)c(Br)c1` [Cpd 187, 5-(3-bromo-4-phenoxy-phenyl)-4-oxo-4,5-dihydro-3H-1-thia-3,5,6,8-tetraaza-acenaphthylene-2-carboxylic acid (4-morpholin-4-ylmethyl-phenyl)-amide], the IC50 was 121 nM against EGFR and 248 nM at HER-2.

With `O=C(Nc1ccc(CN2CCCCC2)cc1)c1sc2ncnc3c2c1NC(=O)N3c1ccc(Oc2ccccc2)c(Br)c1` [Cpd 188, 5-(3-bromo-4-phenoxy-phenyl)-4-oxo-4,5-dihydro-3H-1-thia-3,5,6,8-tetraaza-acenaphthylene-2-carboxylic acid (4-piperidin-1-ylmethyl-phenyl)-amide], the IC50 against EGFR amounted to 49 nM; at HER-2, 83 nM.

With `COc1cc(NC(=O)c2sc3ncnc4c3c2NC(=O)N4c2ccc(Oc3ccccc3)c(Br)c2)ccc1CN1CCOCC1` [Cpd 189, 5-(3-bromo-4-phenoxy-phenyl)-4-oxo-4,5-dihydro-3H-1-thia-3,5,6,8-tetraaza-acenaphthylene-2-carboxylic acid (3-methoxy-4-morpholin-4-ylmethyl-phenyl)-amide], the results for the 50% inhibitory concentration (IC50) at EGFR and on HER-2 were 83 nM and 72 nM, respectively.

`CN1CCC(NC(=O)c2sc3ncnc4c3c2NC(=O)N4c2ccc(Sc3ccccc3)cc2)CC1` [Cpd 191, 4-oxo-5-(4-phenylsulfanyl-phenyl)-4,5-dihydro-3H-1-thia-3,5,6,8-tetraaza-acenaphthylene-2-carboxylic acid (1-methyl-piperidin-4-yl)-amide]: the IC50 was determined as 18 nM on EGFR and 62 nM on HER-2.

As for `O=C(Nc1ccc(CN2CCCCC2)cc1)c1sc2ncnc3c2c1NC(=O)N3c1ccc2nc(Cc3cccc(F)c3)[nH]c2c1` [Cpd 192, 5-[2-(3-fluoro-benzyl)-3H-benzoimidazol-5-yl]-4-oxo-4,5-dihydro-3H-1-thia-3,5,6,8-tetraaza-acenaphthylene-2-carboxylic acid (4-piperidin-1-ylmethyl-phenyl)-amide], the IC50 on EGFR is 410 nM; at HER-2 it was > 1000 nM.

With `O=C(Nc1ccc(CN2CCOCC2)cc1)c1sc2ncnc3c2c1NC(=O)N3c1ccc2nc(Cc3cccc(F)c3)[nH]c2c1` [Cpd 193, 5-[2-(3-fluoro-benzyl)-3H-benzoimidazol-5-yl]-4-oxo-4,5-dihydro-3H-1-thia-3,5,6,8-tetraaza-acenaphthylene-2-carboxylic acid (4-morpholin-4-ylmethyl-phenyl)-amide], the IC50 against EGFR is 704 nM; at HER-2, > 1000 nM.

For `CN1CCC(NC(=O)c2sc3ncnc4c3c2NC(=O)N4c2ccc3nc(Cc4cccc(F)c4)[nH]c3c2)CC1` [Cpd 194, 5-[2-(3-fluoro-benzyl)-3H-benzoimidazol-5-yl]-4-oxo-4,5-dihydro-3H-1-thia-3,5,6,8-tetraaza-acenaphthylene-2-carboxylic acid (1-methyl-piperidin-4-yl)-amide], at EGFR, the inhibition – broadly, the percentage by which the read-out fell short of the control – at 2 µM was 31%. Also, the IC50 on HER-2 stood at 5770 nM.

As for `O=C(Nc1ccc(CN2CCCCC2)cc1)c1sc2ncnc3c2c1NC(=O)N3c1ccc(Br)cc1` [Cpd 195, 5-(4-bromo-phenyl)-4-oxo-4,5-dihydro-3H-1-thia-3,5,6,8-tetraaza-acenaphthylene-2-carboxylic acid (4-piperidin-1-ylmethyl-phenyl)-amide], the IC50 is 97 nM on EGFR and 94 nM at HER-2.

For `O=C(Nc1ccc(CN2CCOCC2)cc1)c1sc2ncnc3c2c1NC(=O)N3c1ccc(Br)cc1` [Cpd 196, 5-(4-bromo-phenyl)-4-oxo-4,5-dihydro-3H-1-thia-3,5,6,8-tetraaza-acenaphthylene-2-carboxylic acid (4-morpholin-4-ylmethyl-phenyl)-amide], the IC50 on EGFR amounted to 206 nM; at HER-2, 122 nM.

With `O=C(Nc1ccc(CN2CCCCC2)cc1)c1sc2ncnc3c2c1NC(=O)N3c1cccc(Oc2ccccc2)c1` [Cpd 197, 4-oxo-5-(3-phenoxy-phenyl)-4,5-dihydro-3H-1-thia-3,5,6,8-tetraaza-acenaphthylene-2-carboxylic acid (4-piperidin-1-ylmethyl-phenyl)-amide], the IC50 at EGFR was found to be 39 nM; on HER-2, 175 nM.

For `CN1CCN(Cc2ccc(NC(=O)c3sc4ncnc5c4c3NC(=O)N5c3cccc(Oc4ccccc4)c3)cc2)CC1` [Cpd 199, 4-oxo-5-(3-phenoxy-phenyl)-4,5-dihydro-3H-1-thia-3,5,6,8-tetraaza-acenaphthylene-2-carboxylic acid [4-(4-methyl-piperazin-1-ylmethyl)-phenyl]-amide], the concentration for half-maximal inhibition (IC50) against EGFR is 155 nM; on HER-2, 613 nM.

Turning to `COc1cc(NC(=O)c2sc3ncnc4c3c2NC(=O)N4c2cccc(Oc3ccccc3)c2)ccc1CN1CCOCC1` [Cpd 200, 4-oxo-5-(3-phenoxy-phenyl)-4,5-dihydro-3H-1-thia-3,5,6,8-tetraaza-acenaphthylene-2-carboxylic acid (3-methoxy-4-morpholin-4-ylmethyl-phenyl)-amide], the IC50 worked out at 89 nM on EGFR and 130 nM at HER-2.

For the compound `COc1cc(NC(=O)c2sc3ncnc4c3c2NC(=O)N4c2ccc(Br)cc2)ccc1CN1CCOCC1` [Cpd 201, 5-(4-bromo-phenyl)-4-oxo-4,5-dihydro-3H-1-thia-3,5,6,8-tetraaza-acenaphthylene-2-carboxylic acid (3-methoxy-4-morpholin-4-ylmethyl-phenyl)-amide], the IC50 at EGFR stood at 106 nM; on HER-2 it was 92 nM.

With `COc1ccc(C(=O)c2sc3ncnc4c3c2NC(=O)N4c2ccc(Oc3ccccc3)cc2)cc1OC` [Cpd 202], the inhibition at 2 µM at EGFR came to 31%. Besides, on HER-2, the IC50 is > 100000 nM.

Turning to `O=C(Nc1ccc(CN2CCOCC2)c(F)c1)c1sc2ncnc3c2c1NC(=O)N3c1ccc(Oc2ccccc2)cc1` [Cpd 203, 4-oxo-5-(4-phenoxy-phenyl)-4,5-dihydro-3H-1-thia-3,5,6,8-tetraaza-acenaphthylene-2-carboxylic acid (3-fluoro-4-morpholin-4-ylmethyl-phenyl)-amide], the IC50 worked out at 35 nM on EGFR and 60 nM on HER-2.

With `O=C(Nc1ccc(CN2CCCCC2)cc1)c1sc2ncnc3c2c1NC(=O)N3c1ccc([S+]([O-])c2ccccc2)cc1` (stereo not shown) [Cpd 205, 5-(4-benzenesulfinyl-phenyl)-4-oxo-4,5-dihydro-3H-1-thia-3,5,6,8-tetraaza-acenaphthylene-2-carboxylic acid (4-piperidin-1-ylmethyl-phenyl)-amide], the IC50 against EGFR was determined as 689 nM; on HER-2, 1440 nM.
